These results are taken from PMC10709440, “High-throughput ligand profile characterization in novel cell lines expressing seven heterologous insect olfactory receptors for the detection of volatile plant biomarkers” (Scientific Reports, 2023).

Where two headings read alike, the source gives them in different places.

Assay [1] deals with T1, Drosophila OR47a (Drosophila melanogaster, UniProt P81921).
T1 construct: expressed in transfected cells
T1 sequence (P81921 1-385): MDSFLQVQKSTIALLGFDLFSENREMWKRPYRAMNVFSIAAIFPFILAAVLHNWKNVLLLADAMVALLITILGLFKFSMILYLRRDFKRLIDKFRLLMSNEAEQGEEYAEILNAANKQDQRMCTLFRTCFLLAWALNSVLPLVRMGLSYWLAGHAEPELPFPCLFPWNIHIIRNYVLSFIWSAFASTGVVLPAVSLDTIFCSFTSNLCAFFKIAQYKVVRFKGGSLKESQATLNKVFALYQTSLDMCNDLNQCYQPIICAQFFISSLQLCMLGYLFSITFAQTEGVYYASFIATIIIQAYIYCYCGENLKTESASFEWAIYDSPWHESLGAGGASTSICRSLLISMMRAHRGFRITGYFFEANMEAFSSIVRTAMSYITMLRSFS
T1 sequence (Q9VNB5 1-486 partner): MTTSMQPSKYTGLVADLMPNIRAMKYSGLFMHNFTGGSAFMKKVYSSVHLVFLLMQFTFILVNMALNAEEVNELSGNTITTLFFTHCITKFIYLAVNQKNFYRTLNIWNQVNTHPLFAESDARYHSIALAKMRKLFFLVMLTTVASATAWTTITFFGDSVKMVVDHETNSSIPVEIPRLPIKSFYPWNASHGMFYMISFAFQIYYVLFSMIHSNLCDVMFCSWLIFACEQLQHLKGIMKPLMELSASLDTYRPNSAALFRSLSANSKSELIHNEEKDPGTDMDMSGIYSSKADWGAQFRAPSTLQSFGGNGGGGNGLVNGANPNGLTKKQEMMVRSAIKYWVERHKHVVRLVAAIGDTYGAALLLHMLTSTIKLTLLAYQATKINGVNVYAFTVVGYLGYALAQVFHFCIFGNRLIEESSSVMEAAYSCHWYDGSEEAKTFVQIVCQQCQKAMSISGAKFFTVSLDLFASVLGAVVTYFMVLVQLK
Briefly: Calcium ion fluorescence (GCaMP6) assay, OR47a stable HEK293 cell line. It counts as cell-based. The following applies: for Average response: mean of biological replicates; for OR47a Average response (VUAA1-normalized): 50 μM VUAA1 = 1. The essentials:
(§1)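 Responses are VUAA1-normalized ΔF: each VOC-evoked calcium signal, (FMAX−F0)/F0 over 30 s after injection, divided by the same line's mean 50 µM VUAA1 response. Cells were doxycycline-induced HEK293 with GCaMP6 and the cognate Drosophila OR, in HEPES buffer pH 7.3; ligands tested 0.01–100 μM.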

Assay [2] addresses T2, Drosophila OR10a (Drosophila melanogaster, UniProt Q9VYZ1).
T2 construct: expressed in transfected cells
T2 sequence (Q9VYZ1 1-406): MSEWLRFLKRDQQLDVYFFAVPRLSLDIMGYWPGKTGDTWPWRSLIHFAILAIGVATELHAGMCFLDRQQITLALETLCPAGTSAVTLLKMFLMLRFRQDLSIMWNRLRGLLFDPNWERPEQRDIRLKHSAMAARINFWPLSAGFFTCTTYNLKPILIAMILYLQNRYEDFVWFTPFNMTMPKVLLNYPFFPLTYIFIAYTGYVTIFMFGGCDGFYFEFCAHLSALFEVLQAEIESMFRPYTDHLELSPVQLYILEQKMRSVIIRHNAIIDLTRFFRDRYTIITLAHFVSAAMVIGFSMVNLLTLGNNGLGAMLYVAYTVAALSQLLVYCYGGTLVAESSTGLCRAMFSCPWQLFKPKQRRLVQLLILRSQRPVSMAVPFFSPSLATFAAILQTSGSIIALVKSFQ
T2 sequence (Q9VNB5 1-486 partner): T1 sequence (Q9VNB5 1-486 partner)
Briefly: Calcium ion fluorescence (GCaMP6) assay, OR10a stable HEK293 cell line. The format is cell-based. The essentials:
as §1

The mark [3] stands for this setting: OR47a cell line, odorant cc. 1 µM.
[4] abbreviates: OR47a cell line, odorant cc. 10 µM.
[5] abbreviates: OR47a cell line, odorant cc. 100 µM.
The mark [6] stands for this setting: ligand concentration 1 (unit not given), 0.05 threshold, values below shown as 0.
Where [7] appears, read: ligand concentration 10 (unit not given), 0.05 threshold, values below shown as 0.
The mark [8] stands for this setting: ligand concentration 100 (unit not given), 0.05 threshold, values below shown as 0.
Where [9] appears, read: HEK293, read-out: OR10a Average response (VUAA1-normalized), 1 μM VOC, 50 μM VUAA1 = 1, responses not exceeding 0.05 considered 0.
[10] abbreviates: HEK293, read-out: OR10a Average response (VUAA1-normalized), 10 μM VOC, 50 μM VUAA1 = 1, responses not exceeding 0.05 considered 0.
Setting [11] is: HEK293, read-out: OR10a Average response (VUAA1-normalized), 100 μM VOC, 50 μM VUAA1 = 1, responses not exceeding 0.05 considered 0.
The mark [12] stands for this setting: ligand concentration 1 (unit not given), threshold 0.05, below shown as 0.
[13] abbreviates: ligand concentration 10 (unit not given), threshold 0.05, below shown as 0.
The mark [14] stands for this setting: ligand concentration 100 (unit not given), threshold 0.05, below shown as 0.
The mark [15] stands for this setting: HEK293, read-out: OR47a response (VUAA1-normalized response).
Where [16] appears, read: HEK293, 1 μM VOC, 50 μM VUAA1 = 1, responses not exceeding 0.05 considered 0, read-out: OR10a Average response (VUAA1-normalized).
Where [17] appears, read: HEK293, 10 μM VOC, 50 μM VUAA1 = 1, responses not exceeding 0.05 considered 0, read-out: OR10a Average response (VUAA1-normalized).
Where [18] appears, read: HEK293, 100 μM VOC, 50 μM VUAA1 = 1, responses not exceeding 0.05 considered 0, read-out: OR10a Average response (VUAA1-normalized).
[19] abbreviates: HEK293, read-out: OR10a response (VUAA1-normalized response), VOC concentration 1 μM.
Where [20] appears, read: HEK293, read-out: OR10a response (VUAA1-normalized response), VOC concentration 10 μM.
Where [21] appears, read: HEK293, read-out: OR10a response (VUAA1-normalized response), VOC concentration 100 μM.
Where [22] appears, read: HEK293, read-out: OR47a Average response (VUAA1-normalized).
[23] abbreviates: concentration 1, normalized fluorescence change, values below 0.05 threshold given as 0.
Where [24] appears, read: concentration 10, normalized fluorescence change, values below 0.05 threshold given as 0.
Setting [25] is: concentration 100, normalized fluorescence change, values below 0.05 threshold given as 0.

Regarding `C=Cc1ccccc1` [styrene], the “OR47a response (VUAA1-normalized) at 1 μM” value in assay [1] (OR47a cell line, VOC concentration 1 μM) is 0.00. Further, the “OR47a response (VUAA1-normalized) at 10 μM” value in assay [1] (OR47a cell line, VOC concentration 10 μM) stood at 0.00. For the same molecule, the “OR47a response (VUAA1-normalized) at 100 μM” value in assay [1] (OR47a cell line, VOC concentration 100 μM) is 0.00. Moreover, the Average response in assay [1] (setting [3]) is given as 0.0246; in assay [1] (setting [4]), 0.00; in assay [1] (setting [5]), 0.0286. Also, the “DF norm AVERAGE OR47a” value in assay [1] (setting [6]), in assay [1] (setting [7]) and in assay [1] (setting [8]) was 0 each time. In assay [2] (setting [9]), the activation at 1 µM was found to be 3%. Besides, in assay [2] (setting [10]), the activation at 10 µM was 0%. Also, the activation at 100 µM in assay [2] (setting [11]) turned out to be 14%. In assay [2] (OR10a cell line, VOC concentration 1 μM), the “OR10a response (VUAA1-normalized) at 1 μM” value was found to be 0.00. In assay [2] (OR10a cell line, VOC concentration 10 μM), the “OR10a response (VUAA1-normalized) at 10 μM” value is listed as 0.00. Further, in assay [2] (OR10a cell line, VOC concentration 100 μM), the “OR10a response (VUAA1-normalized) at 100 μM” value is reported as 0.14. For the same molecule, the “DF norm AVERAGE OR10a” value in assay [2] (setting [6]) worked out at 0; in assay [2] (setting [7]), 0; in assay [2] (setting [8]) it was 0.144.
Take `CC/C=C/CCO` [e3-hexenol]: the “OR47a Average response (VUAA1-normalized)” value in assay [1] (1 μM VOC) is recorded as 0.06; in assay [1] (10 μM VOC) it was 0.00; in assay [1] (100 μM VOC) it was 0.14. The Average response amounted to 0.06 in assay [1] (setting [3]), 0.00 in assay [1] (setting [4]) and 0.14 in assay [1] (setting [5]). Further, the “DF norm AVERAGE OR47a” value in assay [1] (setting [12]) turned out to be 0.06256; in assay [1] (setting [13]), 0; in assay [1] (setting [14]) it was 0.1396. Also, the “OR10a Average response (VUAA1-normalized)” value in assay [2] (1 μM VOC, 50 μM VUAA1 = 1, responses not exceeding 0.05 considered 0) amounted to 0.0153; in assay [2] (10 μM VOC, 50 μM VUAA1 = 1, responses not exceeding 0.05 considered 0) it was 0.00; in assay [2] (100 μM VOC, 50 μM VUAA1 = 1, responses not exceeding 0.05 considered 0) it was 0.074. The results for the “DF norm AVERAGE OR10a” value in assay [2] (setting [12]), in assay [2] (setting [13]) and in assay [2] (setting [14]) were 0, 0 and 0.07404, respectively.
In the case of `CC(=O)c1ccccc1` [acetophenone], the activation at 1 µM in assay [1] (setting [15]) was 0%; in assay [2] (setting [16]), 4%; in assay [2] (setting [19]) it was 0%. Besides, the activation at 10 µM in assay [1] (setting [15]), in assay [2] (setting [17]) and in assay [2] (setting [20]) was 0% in each case. Also, the results for the activation at 100 µM in assay [1] (setting [15]), in assay [2] (setting [18]) and in assay [2] (setting [21]) were 0%, 24% and 24%, respectively. For the same molecule, the figures for the Average response in assay [1] (setting [3]), in assay [1] (setting [4]) and in assay [1] (setting [5]) were 0.0171, 0.00 and 0.0243, respectively. Further, the “DF norm AVERAGE OR47a” value in assay [1] (setting [12]), in assay [1] (setting [13]) and in assay [1] (setting [14]) was 0 in each case. Further, the “DF norm AVERAGE OR10a” value in assay [2] (setting [12]) is on record as 0; in assay [2] (setting [13]), 0; in assay [2] (setting [14]), 0.2367.
Consider `CCCCCCCCCC=O` [decanal], for which the activation at 1 µM in assay [1] (setting [15]), in assay [2] (setting [16]) and in assay [2] (setting [19]) was 0% each time. Moreover, the activation at 10 µM in assay [1] (setting [15]), in assay [2] (setting [17]) and in assay [2] (setting [20]) was 0% in each case. Further, the activation at 100 µM in assay [1] (setting [15]), in assay [2] (setting [18]) and in assay [2] (setting [21]) was 0% in each case. For the same molecule, the Average response in assay [1] (setting [3]), in assay [1] (setting [4]) and in assay [1] (setting [5]) was 0.00 throughout. In addition, the “DF norm AVERAGE OR47a” value in assay [1] (setting [12]), in assay [1] (setting [13]) and in assay [1] (setting [14]) was 0 throughout. Besides, the “DF norm AVERAGE OR10a” value in assay [2] (setting [12]), in assay [2] (setting [13]) and in assay [2] (setting [14]) was 0 throughout.
On to `CCCCCC(=O)CC` [3-octanone], for which the activation at 1 µM in assay [1] (setting [22]) stood at 7%; in assay [1] (setting [15]), 7.45%; in assay [2] (setting [16]), 2%; in assay [2] (setting [19]), 0%. The activation at 10 µM came to 16% in assay [1] (setting [22]), 16% in assay [1] (setting [15]), 10% in assay [2] (setting [17]) and 10% in assay [2] (setting [20]). Moreover, the activation at 100 µM in assay [1] (setting [22]) amounted to 73%; in assay [1] (setting [15]) it was 73%; in assay [2] (setting [18]), 2.65%; in assay [2] (setting [21]) it was 0%. The Average response in assay [1] (setting [3]) is recorded as 0.0745; in assay [1] (setting [4]) it was 0.16; in assay [1] (setting [5]), 0.73. The “DF norm AVERAGE OR47a” value in assay [1] (setting [23]) is 0.07449; in assay [1] (setting [24]), 0.1581; in assay [1] (setting [25]), 0.7333.
On to `CC1=CCC2C(C1)C2(C)C` (stereo not drawn) [3-carene], for which the activation at 1 µM was determined as 0% in assay [1] (setting [15]), 7% in assay [2] (setting [9]) and 7% in assay [2] (setting [19]). The activation at 10 µM in assay [1] (setting [15]), in assay [2] (setting [10]) and in assay [2] (setting [20]) was 0% each time. The activation at 100 µM in assay [1] (setting [15]), in assay [2] (setting [11]) and in assay [2] (setting [21]) was 0% in each case. Besides, the Average response was found to be 0.00 in assay [1] (setting [3]), 0.00 in assay [1] (setting [4]) and 0.03 in assay [1] (setting [5]). In addition, the “DF norm AVERAGE OR47a” value in assay [1] (setting [23]), in assay [1] (setting [24]) and in assay [1] (setting [25]) was 0 each time. Also, the “DF norm AVERAGE OR10a” value in assay [2] (setting [23]) is given as 0.0692; in assay [2] (setting [24]) it was 0; in assay [2] (setting [25]) it was 0.
